Data as given in patent US20180251431A1 (VERTEX PHARMACEUTICALS INCORPORATED, priority 2016, published 2018).

Tested on: HEK293 cells
Assay: HEK293 VLCFA-LPC IC50 determination (13C-labeled C26:0 LPC by UHPLC/MS)
Assay type: cell-based, human
Settings: Homo sapiens, HEK293, 48 h, average of one or more replicates; 13C-labeled C26:0 LPC, 48 hours; read-out: Average HEK293 IC50
Experimental: HEK293 cells were treated with compounds, such as those listed in Tables A-E of Example 1, using the representative manual protocols described below. The protocols below were also adapted to a semi-automated protocol using standard methods in the art.
Cell Culture Growth Conditions:
HEK293 cells were maintained in FreeStyle F17 media (Gibco # A13835) supplemented with PenStrep (1%, Gibco #15070-063), Glutamax (2%, Gibco #35050-061), and Pluronic (0.1%, Gibco #24040-032) (“supplemented media”). Suspension cultures were grown in disposable Erlenmeyer flasks at about 120 rpm, 37° C., 5% CO2, and 80% humidity. Cell densities were kept between about 0.5 and 3 million cells per mL, in about 50-200 mL per flask.
Treatment of Cells with Compounds Provided Herein:
The cells were treated with compounds using either a total of 900 uL cell media volume (high-volume assay) or a total of 200 uL cell media volume (low-volume assay). In the high volume assay, 450 μL of supplemented media plus 13C-acetate (1.0 mg/mL, Sigma Aldrich #282014) were added to 0.5 μL of a compound (such as those in Tables A-E) in DMSO in a polypropylene v-bottom plate (Costar #3363) in 1 of 3 dilution schemes. The contents of each well were mixed and transferred to a sterile polypropylene deep-well v-bottom plate (Costar #3960). 450 μL of cultured HEK293 cells in supplemented media at a density of 1.0 million cells/mL was added to each well. In the low volume assay, 100 μL of supplemented media plus 13C-acetate (1.0 mg/mL, Sigma Aldrich #282014) were added to either 0.1 μL or 1.0 uL of a compound (such as those in Tables A-E) in DMSO in a polypropylene v-bottom plate (Costar #3363) in 1 of 3 dilution schemes. 100 μL of cultured HEK293 cells in supplemented media at a density of 1.0 million cells/mL was added to each well. The high volume and low volume plates were sealed with either AirPore Tape Sheets (Qiagen #19571) or Duetz plate covers to control evaporation and placed into a shaking incubator at 225 rpm, 37° C., 5% CO2, and 80% humidity for 48 hours. For both the high and low volume assays the 3 dilution schemes used were as follows:
Following incubation, treated cells were harvested by centrifugation at 1690×g for 10 minutes. In the high volume assay 200 uL treated cells were transferred to a polypropylene v-bottom plate (Costar #3363) prior to centrifugation. In the low volume assay the incubation plate was centrifuged directly, without a transfer step. The supernatant was then discarded and the analytes were extracted using 1 of 2 different extraction schemes. In the first scheme, the cell pellet was visibly broken up by mixing the cell pellet up and down in 100 μL of hexane/isopropanol (60:40) 20 times. The resulting mixture was transferred to a 0.45 μm Durapore membrane (Millipore #MSH VN4510) atop a polypropylene v-bottom plate (Costar #3363) and filtered by centrifugation at 1690×g for 5 minutes. 120 μL of n-butanol containing 10 nM C13:0 lysophosphatidylcholine was added to the filtrate as an injection control standard, then the entire volume was transferred to a new Durapore membrane/v-bottom plate. In the second scheme, the cell pellet was visibly broken up by mixing the cell pellet up and down in 180 μL of methanol containing 10 nM C13:0 lysophosphatidylcholine 20 times. The resulting mixture was transferred to a 0.45 μm Durapore membrane (Millipore #MSH VN4510) atop a polypropylene v-bottom plate and filtered by centrifugation at 1690×g for 5 minutes. In both schemes, the plates were then sealed with pierceable capmats (Micronic MP53017) and stored at −20 OC until analyzed.
UHPLC/Mass Spectrometry Readout:
The filtered organic extraction was analyzed with a 1290 Agilent Infinity Series UHPLC coupled to an ABI Sciex QTrap 6500 mass spectrometer. […]

Question: Which IC50 does the source give for `COc1ncncc1-n1ccc(NC(=O)C2(c3ccccc3F)CC2)n1` [Compound 353, 1-(2-fluorophenyl)-N-[1-(4-methoxypyrimidin-5-yl)pyrazol-3-yl]cyclopropanecarboxamide] here?
Answer: 2200 nM

Question: Which IC50 does the source give for `Cc1cc(-n2ccc(NC(=O)C3(c4ccccc4F)CC3)n2)sn1` [Compound 401, 1-(2-fluorophenyl)-N-[1-(3-methylisothiazol-5-yl)pyrazol-3-yl]cyclopropanecarboxamide] here?
Answer: 2300 nM

Question: Which IC50 does the source give for `Cc1nccc(-n2ccc(NC(=O)C3(c4ccccc4F)CC3)n2)c1C` [Compound 343, N-[1-(2,3-dimethyl-4-pyridyl)pyrazol-3-yl]-1-(2-fluorophenyl)cyclopropanecarboxamide] here?
Answer: > 5000 nM

Question: With `O=C(Nc1ccn(-c2cnc(Cl)c(Cl)c2)n1)C1(c2ccccc2F)CC1` [Compound 379, N-[1-(5,6-dichloro-3-pyridyl)pyrazol-3-yl]-1-(2-fluorophenyl)cyclopropanecarboxamide] as the compound, how does the IC50 read?
Answer: 120 nM

Question: `CC(C)Oc1cc(-n2ccc(NC(=O)C3(c4ccccc4F)CC3)n2)ccn1` [Compound 342, 1-(2-fluorophenyl)-N-[1-(2-isopropoxy-4-pyridyl)pyrazol-3-yl]cyclopropanecarboxamide] was tested. Which IC50 did it give?
Answer: > 5000 nM

Same assay, conditions: Homo sapiens, HEK293, HEK293 cells; average of one or more replicates; read-out: Average HEK293 IC50

Question: With `O=C(Nc1ccn(-c2cc(F)cc(F)c2)n1)C1(c2ccc(F)cn2)CC1` [Compound 487, N-[1-(3,5-difluorophenyl)pyrazol-3-yl]-1-(5-fluoro-2-pyridyl)cyclopropanecarboxamide] as the compound, how does the IC50 read?
Answer: 1200 nM

Question: For `CCOc1cc(-n2ccc(NC(=O)C3(c4ccccc4F)CC3)n2)ccn1` [Compound 449, N-[1-(2-ethoxy-4-pyridyl)pyrazol-3-yl]-1-(2-fluorophenyl)cyclopropanecarboxamide], which IC50 is on record?
Answer: > 5000 nM

Question: With `O=C(Cc1ncccn1)Nc1ccn(-c2ccccc2)n1` [Compound 220, N-(1-phenylpyrazol-3-yl)-2-pyrimidin-2-yl-acetamide] as the compound, how does the IC50 read?
Answer: > 2000 nM

Question: `O=C(Nc1ccn(-c2ccnc(F)c2)n1)C1(c2ccccc2)CC1` [Compound 237, N-[1-(2-fluoro-4-pyridyl)pyrazol-3-yl]-1-phenyl-cyclopropanecarboxamide] was tested. Which IC50 did it give?
Answer: 22 nM

Question: Which IC50 does the source give for `CC1CC1(C(=O)Nc1ccn(-c2ccncc2)n1)c1ncccc1F` (stereo not drawn) [Compound 528, 1-(3-fluoro-2-pyridyl)-2-methyl-N-[1-(4-pyridyl)pyrazol-3-yl]cyclopropanecarboxamide] here?
Answer: 270 nM

Question: Which IC50 does the source give for `Cn1ccc(-n2ccc(NC(=O)Cc3ccccc3)n2)n1` [Compound 228, N-[1-(1-methylpyrazol-3-yl)pyrazol-3-yl]-2-phenyl-acetamide] here?
Answer: > 5000 nM

Question: How did the IC50 turn out when `N#Cc1cccc(C2(C(=O)Nc3ccn(-c4ccccc4)n3)CC2)c1` [Compound 244, 1-(3-cyanophenyl)-N-(1-phenylpyrazol-3-yl)cyclopropanecarboxamide] was run?
Answer: 280 nM

Question: With `Cc1ccnn1CC(=O)Nc1ccn(-c2ccnc(F)c2)n1` [Compound 282, N-[1-(2-fluoro-4-pyridyl)pyrazol-3-yl]-2-(5-methylpyrazol-1-yl)acetamide] as the compound, how does the IC50 read?
Answer: > 2000 nM

Question: How did the IC50 turn out when `O=C(Cc1ccc(OC(F)(F)F)cc1)Nc1ccn(-c2ccccc2)n1` [Compound 53, N-(1-phenylpyrazol-3-yl)-2-[4-(trifluoromethoxy)phenyl]acetamide] was run?
Answer: > 5000 nM

Question: How did the IC50 turn out when `O=C(Cc1cccc(C(F)(F)F)c1)Nc1ccn(-c2ccccc2)n1` [Compound 51, N-(1-phenylpyrazol-3-yl)-2-[3-(trifluoromethyl)phenyl]acetamide] was run?
Answer: > 2000 nM

Question: Which IC50 does the source give for `O=C(Cc1cc(C(F)(F)F)cc(C(F)(F)F)c1)Nc1ccn(-c2ccccc2)n1` [Compound 73, 2-[3,5-bis(trifluoromethyl)phenyl]-N-(1-phenylpyrazol-3-yl)acetamide] here?
Answer: > 5000 nM

Question: With `O=C(Cc1cc(F)c(F)cc1F)Nc1ccn(-c2ccccc2)n1` [Compound 75, N-(1-phenylpyrazol-3-yl)-2-(2,4,5-trifluorophenyl)acetamide] as the compound, how does the IC50 read?
Answer: > 2000 nM

Question: How did the IC50 turn out when `O=C(Nc1ccn(-c2ccccc2)n1)C1(c2cc(F)ccc2F)CC1` [Compound 261, 1-(2,5-difluorophenyl)-N-(1-phenylpyrazol-3-yl)cyclopropanecarboxamide] was run?
Answer: 160 nM

Question: `O=C(Nc1ccn(-c2cncc(F)c2)n1)C1(c2ccccc2)CC1` [Compound 201, N-[1-(5-fluoro-3-pyridyl)pyrazol-3-yl]-1-phenyl-cyclopropanecarboxamide] was tested. Which IC50 did it give?
Answer: 46 nM

Question: Which IC50 does the source give for `O=C(Nc1ccn(-c2ccnc(F)c2)n1)C1(c2ccncc2F)CC1` [Compound 313, 1-(3-fluoro-4-pyridyl)-N-[1-(2-fluoro-4-pyridyl)pyrazol-3-yl]cyclopropanecarboxamide] here?
Answer: 1700 nM

Question: How did the IC50 turn out when `O=C(Nc1ccn(-c2ccnc(F)c2)n1)C1(c2cccnc2)CC1` [Compound 222, N-[1-(2-fluoro-4-pyridyl)pyrazol-3-yl]-1-(3-pyridyl)cyclopropanecarboxamide] was run?
Answer: 2000 nM

Question: `O=C(Nc1ccn(-c2cnccn2)n1)C1(c2ccccc2F)CC1` [Compound 215, 1-(2-fluorophenyl)-N-(1-pyrazin-2-ylpyrazol-3-yl)cyclopropanecarboxamide] was tested. Which IC50 did it give?
Answer: 610 nM

Question: For `O=C(Nc1ccn(-c2ccncc2)n1)C1(c2ncccc2F)CC12CC2` (stereo not drawn) [Compound 526, 2-(3-fluoro-2-pyridyl)-N-[1-(4-pyridyl)pyrazol-3-yl]spiro[2.2]pentane-2-carboxamide], which IC50 is on record?
Answer: 1900 nM

Question: How did the IC50 turn out when `O=C(Nc1ccn(-c2ccnc(F)c2)n1)[C@@]1(c2ccccc2)CC12CCC2` [Compound 151, (2S)-N-[1-(2-fluoro-4-pyridyl)pyrazol-3-yl]-2-phenyl-spiro[2.3]hexane-2-carboxamide] was run?
Answer: < 50 nM

Question: With `O=C(Nc1ccn(-c2ccnc(F)c2)n1)C1(c2ccc(I)cc2)CC1` [Compound 238, N-[1-(2-fluoro-4-pyridyl)pyrazol-3-yl]-1-(4-iodophenyl)cyclopropanecarboxamide] as the compound, how does the IC50 read?
Answer: 120 nM

Question: Which IC50 does the source give for `O=C(Nc1ccn(-c2ccnc(F)c2)n1)C1(c2ccc(Cl)cc2)CC1` [Compound 257, 1-(4-chlorophenyl)-N-[1-(2-fluoro-4-pyridyl)pyrazol-3-yl]cyclopropanecarboxamide] here?
Answer: 340 nM

Question: Which IC50 does the source give for `O=C(Nc1ccn(-c2ccccc2)n1)C1(c2cccnc2)CC1` [Compound 224, N-(1-phenylpyrazol-3-yl)-1-(3-pyridyl)cyclopropanecarboxamide] here?
Answer: 1400 nM

Question: For `O=C(Nc1ccn(-c2cncc(F)c2)n1)C1(c2ncccc2F)CC1` [Compound 423, 1-(3-fluoropyridin-2-yl)-N-(1-(5-fluoropyridin-3-yl)-1H-pyrazol-3-yl)cyclopropane-1-carboxamide], which IC50 is on record?
Answer: 46 nM

Question: With `Cn1ccnc1CC(=O)Nc1ccn(-c2ccnc(F)c2)n1` [Compound 302, N-[1-(2-fluoro-4-pyridyl)pyrazol-3-yl]-2-(1-methylimidazol-2-yl)acetamide] as the compound, how does the IC50 read?
Answer: > 5000 nM

Question: For `O=C(Nc1ccn(-c2cncc(OC(F)F)c2)n1)C1(c2ccc(F)cn2)CC1` [Compound 490, N-[1-[5-(difluoromethoxy)-3-pyridyl]pyrazol-3-yl]-1-(5-fluoro-2-pyridyl)cyclopropanecarboxamide], which IC50 is on record?
Answer: > 5000 nM

Question: How did the IC50 turn out when `O=C(Cc1ccccc1)Nc1ccn(-c2ccc(Cl)c(F)c2)n1` [Compound 193, N-[1-(4-chloro-3-fluoro-phenyl)pyrazol-3-yl]-2-phenyl-acetamide] was run?
Answer: > 5000 nM

Question: `O=C(Cc1ccccc1)Nc1ccn(-c2ccncc2)n1` [Compound 99, 2-phenyl-N-[1-(4-pyridyl)pyrazol-3-yl]acetamide] was tested. Which IC50 did it give?
Answer: 760 nM

Same assay, conditions: average of one or more replicates; 13C-labeled C26:0 LPC, 48 hours; read-out: Average HEK293 IC50

Question: With `O=C(Nc1ccn(-c2cccc(Cl)c2)n1)C1(c2ccccc2)CC1(F)F` (single isomer, unassigned) [Compound 437] as the compound, how does the IC50 read?
Answer: 2400 nM
